Test results taken from US11247965B2 (VenatoRx Pharmaceuticals, Inc., priority 2017, dated 2022).

Legend:
[1] = test system: HBV replication in HepAD38 cells; assay: Anti-HBV activity in HepAD38 cells, extracellular HBV DNA by QPCR; assay type: cell-based, HBV (genotype D, serotype ayw); conditions: Hepatitis B virus, HePAD38, 168 h, read-out: Anti-HBV EC50, HepAD38 cells, extracellular HBV DNA by QPCR, 7 days of incubation
Outline: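 Seven-day compound exposure (30 μM down to 10 nM, half-log steps) after tetracycline withdrawal induced HBV replication in HepAD38 cells. Extracellular viral DNA measured by QPCR (copies/mL via standard curve), normalised to DMSO wells; EC50 from 4-parameter non-linear regression.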

[2] = In vitro cytotoxicity, MTT cell viability assay in HepG2 cells; assay type: cell-based; conditions: human, Cytotoxicity CC50
Outline: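 HepG2 cells incubated 7 days at 37 °C, 5% CO2 with compounds from 30 μM to 1.0 nM (8 half-log dilutions). Viability read as MTT formazan absorbance at 492 nm, normalised to vehicle controls; CC50 from 4-parameter non-linear regression.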

Cc1ccc(C(=O)Nc2ccc(F)c(Cl)c2)cc1C(F)(F)C(=O)N1[C@@H]2CC[C@H]1C[C@H](O)C2 [Example 206, N-(3-chloro-4-fluorophenyl)-3-(1,1-difluoro-2-((1R,3s,5S)-3-hydroxy-8-azabicyclo[3.2.1]octan-8-yl)-2-oxoethyl)-4-methylbenzamide]
EC50 [1]: < 5 µM
CC50 at 7 days [2]: 5 to 30 µM

Cc1cc(NC(=O)c2cccc(C(F)(F)C(=O)N3[C@@H]4CC[C@H]3C[C@H](O)C4)c2F)ccc1F [Example 207, 3-(1,1-difluoro-2-((1R,3s,5S)-3-hydroxy-8-azabicyclo[3.2.1]octan-8-yl)-2-oxoethyl)-2-fluoro-N-(4-fluoro-3-methylphenyl)benzamide]
EC50 [1]: < 5 µM
CC50 at 7 days [2]: 5 to 30 µM

Cc1cc(NC(=O)c2ccc(F)c(C(F)(F)C(=O)N3[C@@H]4CNC[C@H]3COC4)c2)ccc1F [Example 208, 3-(2-((1R,5S)-3-oxa-7,9-diazabicyclo[3.3.1]nonan-9-yl)-1,1-difluoro-2-oxoethyl)-4-fluoro-N-(4-fluoro-3-methylphenyl)benzamide]
EC50 [1]: < 5 µM
CC50 at 7 days [2]: 5 to 30 µM

Cc1cc(NC(=O)c2ccc(F)c(C(F)(F)C(=O)N3[C@@H]4COC[C@H]3CN(C(=O)OC(C)(C)C)C4)c2)ccc1F [Example 209, tert-butyl (1R,5S)-9-(2,2-difluoro-2-(2-fluoro-5-((4-fluoro-3-methylphenyl)carbamoyl)phenyl)acetyl)-3-oxa-7,9-diazabicyclo[3.3.1]nonane-7-carboxylate]
EC50 [1]: < 5 µM
CC50 at 7 days [2]: 5 to 30 µM

Cc1cc(NC(=O)c2ccc(F)c(C(F)(F)C(=O)N3[C@@H]4COC[C@H]3CN(C(=O)N3CCS(=O)(=O)CC3)C4)c2)ccc1F [Example 210, 3-(2-((1R,5S)-7-(1,1-dioxidothiomorpholine-4-carbonyl)-3-oxa-7,9-diazabicyclo[3.3.1]nonan-9-yl)-1,1-difluoro-2-oxoethyl)-4-fluoro-N-(4-fluoro-3-methylphenyl)benzamide]
EC50 [1]: < 5 µM
CC50 at 7 days [2]: > 30 µM

Cc1cc(NC(=O)c2ccc(F)c(C(F)(F)C(=O)N3[C@@H]4COC[C@H]3CN(S(C)(=O)=O)C4)c2)ccc1F [Example 211, 3-(1,1-difluoro-2-((1R,5S)-7-(methylsulfonyl)-3-oxa-7,9-diazabicyclo[3.3.1]nonan-9-yl)-2-oxoethyl)-4-fluoro-N-(4-fluoro-3-methylphenyl)benzamide]
EC50 [1]: < 5 µM
CC50 at 7 days [2]: > 30 µM

Cc1cc(NC(=O)c2ccc(F)c(C(F)(F)C(=O)N3CCC(O)(C(N)=O)CC3)c2)ccc1F [Example 212, 1-(2,2-difluoro-2-(2-fluoro-5-((4-fluoro-3-methylphenyl)carbamoyl)phenyl)acetyl)-4-hydroxypiperidine-4-carboxamide]
EC50 [1]: < 5 µM
CC50 at 7 days [2]: 5 to 30 µM

Cc1cc(NC(=O)c2ccc(F)c(C(F)(F)C(=O)N3[C@@H]4CC[C@H]3COC4)c2)ccc1F [Example 213, 3-(2-((1R,5S)-3-oxa-8-azabicyclo[3.2.1]octan-8-yl)-1,1-difluoro-2-oxoethyl)-4-fluoro-N-(4-fluoro-3-methylphenyl)benzamide]
EC50 [1]: < 5 µM
CC50 at 7 days [2]: > 30 µM

Cc1cc(NC(=O)c2ccc(F)c(C(F)(F)C(=O)N3[C@H](C)CNC[C@@H]3C)c2)ccc1F [Example 214, 3-(2-((2S,6R)-2,6-dimethylpiperazin-1-yl)-1,1-difluoro-2-oxoethyl)-4-fluoro-N-(4-fluoro-3-methylphenyl)benzamide]
EC50 [1]: < 5 µM
CC50 at 7 days [2]: 5 to 30 µM

Cc1cc(NC(=O)c2ccc(F)c(C(F)(F)C(=O)N3[C@@H]4CCC[C@H]3[C@H](O)C4)c2)ccc1F [Example 215, 3-(1,1-difluoro-2-((1R,5S,6R)-6-hydroxy-8-azabicyclo[3.2.1]octan-8-yl)-2-oxoethyl)-4-fluoro-N-(4-fluoro-3-methylphenyl)benzamide]
EC50 [1]: < 5 µM
CC50 at 7 days [2]: 5 to 30 µM

Cc1cc(NC(=O)c2ccc(F)c(C(F)(F)C(=O)N3[C@@H]4CCC[C@H]3C[C@@H](O)C4)c2)ccc1F [Example 216, 3-(1,1-difluoro-2-((1R,3r,5S)-3-hydroxy-9-azabicyclo[3.3.1]nonan-9-yl)-2-oxoethyl)-4-fluoro-N-(4-fluoro-3-methylphenyl)benzamide]
EC50 [1]: < 5 µM
CC50 at 7 days [2]: 5 to 30 µM

Cc1cc(NC(=O)c2ccc(F)c(C(F)(F)C(=O)N3[C@@H]4CCC[C@H]3C[C@H](O)C4)c2)ccc1F [Example 217, 3-(1,1-difluoro-2-((1R,3s,5S)-3-hydroxy-9-azabicyclo[3.3.1]nonan-9-yl)-2-oxoethyl)-4-fluoro-N-(4-fluoro-3-methylphenyl)benzamide]
EC50 [1]: < 5 µM
CC50 at 7 days [2]: 5 to 30 µM

Cc1cc(NC(=O)c2cc(C(F)(F)C(=O)N3[C@@H]4CC[C@H]3C[C@H](O)C4)c(F)cc2F)ccc1F [Example 218, 5-(1,1-difluoro-2-((1R,3s,5S)-3-hydroxy-8-azabicyclo[3.2.1]octan-8-yl)-2-oxoethyl)-2,4-difluoro-N-(4-fluoro-3-methylphenyl)benzamide]
EC50 [1]: < 5 µM
CC50 at 7 days [2]: > 30 µM

Cc1cc(NC(=O)c2cc(F)cc(C(F)(F)C(=O)N3[C@@H]4CC[C@H]3C[C@H](O)C4)c2)ccc1F [Example 219, 3-(1,1-difluoro-2-((1R,3s,5S)-3-hydroxy-8-azabicyclo[3.2.1]octan-8-yl)-2-oxoethyl)-5-fluoro-N-(4-fluoro-3-methylphenyl)benzamide]
EC50 [1]: 5 to 30 µM
CC50 at 7 days [2]: 5 to 30 µM

Cc1cc(NC(=O)c2cc(C(F)(F)C(=O)N3[C@@H]4CC[C@H]3C[C@H](O)C4)ccc2F)ccc1F [Example 220, 5-(1,1-difluoro-2-((1R,3s,5S)-3-hydroxy-8-azabicyclo[3.2.1]octan-8-yl)-2-oxoethyl)-2-fluoro-N-(4-fluoro-3-methylphenyl)benzamide]
EC50 [1]: < 5 µM
CC50 at 7 days [2]: 5 to 30 µM

Cc1cc(NC(=O)c2ccc(Cl)c(C(F)(F)C(=O)N3[C@@H]4CC[C@H]3C[C@H](O)C4)c2)ccc1F [Example 221, 4-chloro-3-(1,1-difluoro-2-((1R,3s,5S)-3-hydroxy-8-azabicyclo[3.2.1]octan-8-yl)-2-oxoethyl)-N-(4-fluoro-3-methylphenyl)benzamide]
EC50 [1]: < 5 µM
CC50 at 7 days [2]: 5 to 30 µM

Cc1cc(NC(=O)c2ccc(F)c(C(F)(F)C(=O)N3CCC(O)(CO)CC3)c2)cc(F)n1 [Example 222, 3-(1,1-difluoro-2-(4-hydroxy-4-(hydroxymethyl)piperidin-1-yl)-2-oxoethyl)-4-fluoro-N-(2-fluoro-6-methylpyridin-4-yl)benzamide]
EC50 [1]: 5 to 30 µM
CC50 at 7 days [2]: > 30 µM

Cc1cc(NC(=O)c2ccc(F)c(C(F)(F)C(=O)N3[C@@H]4CC[C@H]3C[C@H](O)C4)c2)cc(F)n1 [Example 223, 3-(1,1-difluoro-2-((1R,3s,5S)-3-hydroxy-8-azabicyclo[3.2.1]octan-8-yl)-2-oxoethyl)-4-fluoro-N-(2-fluoro-6-methylpyridin-4-yl)benzamide]
EC50 [1]: < 5 µM
CC50 at 7 days [2]: < 5 µM

Cc1cc(NC(=O)c2ccc(F)c(C(F)(F)C(=O)N3[C@@H]4CC[C@H]3C[C@@H](O)C4)c2)cc(F)n1 [Example 224, 3-(1,1-difluoro-2-((1R,3r,5S)-3-hydroxy-8-azabicyclo[3.2.1]octan-8-yl)-2-oxoethyl)-4-fluoro-N-(2-fluoro-6-methylpyridin-4-yl)benzamide]
EC50 [1]: < 5 µM
CC50 at 7 days [2]: < 5 µM

Cc1cc(NC(=O)c2ccc(F)c(C(F)(F)C(=O)N3[C@@H]4CC[C@H]3C[C@@H](NC(=O)OC(C)(C)C)C4)c2)ccc1F [Example 225, tert-butyl ((1R,3r,5S)-8-(2,2-difluoro-2-(2-fluoro-5-((4-fluoro-3-methylphenyl)carbamoyl)phenyl)acetyl)-8-azabicyclo[3.2.1]octan-3-yl)carbamate]
EC50 [1]: < 5 µM
CC50 at 7 days [2]: 5 to 30 µM

Cc1cc(NC(=O)c2ccc(F)c(C(F)(F)C(=O)N3[C@@H]4CC[C@H]3C[C@@H](N)C4)c2)ccc1F [Example 226, 3-(2-((1R,3r,5S)-3-amino-8-azabicyclo[3.2.1]octan-8-yl)-1,1-difluoro-2-oxoethyl)-4-fluoro-N-(4-fluoro-3-methylphenyl)benzamide]
EC50 [1]: < 5 µM
CC50 at 7 days [2]: 5 to 30 µM

CC(=O)N[C@@H]1C[C@H]2CC[C@@H](C1)N2C(=O)C(F)(F)c1cc(C(=O)Nc2ccc(F)c(C)c2)ccc1F [Example 227, 3-(2-((1R,3s,5S)-3-acetamido-8-azabicyclo[3.2.1]octan-8-yl)-1,1-difluoro-2-oxoethyl)-4-fluoro-N-(4-fluoro-3-methylphenyl)benzamide]
EC50 [1]: < 5 µM
CC50 at 7 days [2]: 5 to 30 µM

Cc1cc(NC(=O)c2ccc(F)c(C(F)(F)C(=O)N3[C@@H]4CC[C@H]3C[C@H](N)C4)c2)ccc1F [Example 228, 3-(2-((1R,3s,5S)-3-amino-8-azabicyclo[3.2.1]octan-8-yl)-1,1-difluoro-2-oxoethyl)-4-fluoro-N-(4-fluoro-3-methylphenyl)benzamide]
EC50 [1]: < 5 µM
CC50 at 7 days [2]: 5 to 30 µM

Cc1cc(NC(=O)c2ccc(F)c(C(F)(F)C(=O)N3CCC(NC(=O)OC(C)(C)C)CC3)c2)ccc1F [Example 229, tert-butyl (1-(2,2-difluoro-2-(2-fluoro-5-((4-fluoro-3-methylphenyl)carbamoyl)phenyl)acetyl)piperidin-4-yl)carbamate]
EC50 [1]: < 5 µM
CC50 at 7 days [2]: 5 to 30 µM

Cc1cc(NC(=O)c2ccc(F)c(C(F)(F)C(=O)N3CCC(N)CC3)c2)ccc1F [Example 230, 3-(2-(4-aminopiperidin-1-yl)-1,1-difluoro-2-oxoethyl)-4-fluoro-N-(4-fluoro-3-methylphenyl)benzamide]
EC50 [1]: < 5 µM
CC50 at 7 days [2]: 5 to 30 µM
